Measured values from patent US10583206B2, “Radioactive probe for detecting hydrogen sulfide” (KYUNGPOOK NATIONAL UNIVERSITY INDUSTRY-ACADEMIC COOPERATION …, priority 2015, dated 2020).

How the values were obtained:
[1] = Hydrogen sulfide selectivity test: decomplexation by NaOAc; format: physicochemical; conditions: 100 μM or (1 mM), 37° C. for 15 minutes
Experimental: (§1) In addition to hydrogen sulfide, many different anions, radicals, etc. exist in the body. Therefore, to examine selective reactivity of the ^64Cu-labeled complex compound according to the present disclosure for sulfide ions, the following experiment was performed.
(§2) About 45 μCi-55 μCi of the ^64Cu-labeled complex compound (250 μL of triple distilled water) was mixed with 100 μM of various anion solutions (250 μL of triple distilled water) including biothiol, and stirred at 37° C. for 15 minutes.
(§3) Formation of copper sulfide (^64CuS) was quantified by using a radio-TLC scanner.
(§4) Various biothiol or salt solutions were prepared by dissolving the compounds in triple distilled water.
(§5) In Table, concentrations of all biothiols and other competitive materials are 100 μM. Further, specific concentrations of biothiols, anions, and oxidants used in Table are as follows: [L-Cys (1 mM); L-Hcys (10 mM); GSH (10 mM); DL-dithiothretitol (DTT, 100 μM); L-ascorbic acid (L-AsA, 10 mM); 2-mercaptoethanol (2-ME, 10 mM); NaCl (10 mm); KI (1 mM); Na2S2O3 (1 mM); Na2S2O5 (1 mM); NaOAc (1 mM); H2O2 ([…]); NaClO4 (100 μM); NaHCO3 (100 μM); NaNO2 ([…]); NaN3 (100 μM); ATB 337 (100 μM); diallyl trisulphide (100 μM)].

[2] = Hydrogen sulfide selectivity test: decomplexation by NaHCO3; format: physicochemical; conditions: NaHCO3 (100 μM); 37° C. for 15 minutes
Experimental: as §1, §2, §3, §4, §5

[3] = Hydrogen sulfide selectivity test: decomplexation by Na2S2O3; format: physicochemical; conditions: 100 μM or (1 mM), 37° C. for 15 minutes
Experimental: as §1, §2, §3, §4, §5

[4] = Hydrogen sulfide selectivity test: decomplexation by L-AsA; format: physicochemical; conditions: L-ascorbic acid; 100 μM or (L-AsA, 10 mM); 37° C. for 15 minutes
Experimental: as §1, §2, §3, §4, §5

[5] = Hydrogen sulfide selectivity test: decomplexation by ATB 337; format: physicochemical; conditions: ATB 337 (100 μM); 37° C. for 15 minutes
Experimental: as §1, §2, §3, §4, §5

[6] = Hydrogen sulfide selectivity test: decomplexation by GSH; format: physicochemical; conditions: 100 μM or GSH (10 mM), 37° C. for 15 minutes
Experimental: as §1, §2, §3, §4, §5

[7] = Hydrogen sulfide selectivity test: decomplexation by Hcys; format: physicochemical; conditions: 100 μM or L-Hcys (10 mM), 37° C. for 15 minutes
Experimental: as §1, §2, §3, §4, §5

[8] = Hydrogen sulfide selectivity test: decomplexation by DAT (diallyl trisulphide); format: physicochemical; conditions: DAT = diallyl trisulphide (100 μM); 37° C. for 15 minutes
Experimental: as §1, §2, §3, §4, §5

[9] = Hydrogen sulfide selectivity test: decomplexation by NaN3; format: physicochemical; conditions: NaN3 (100 μM); 37° C. for 15 minutes
Experimental: as §1, §2, §3, §4, §5

[10] = Hydrogen sulfide selectivity test: decomplexation by Kl; format: physicochemical; conditions: 100 μM or KI (1 mM), 37° C. for 15 minutes
Experimental: as §1, §2, §3, §4, §5

Paw inflammation model = format: in vivo, Balb/c or ICR mice
Experimental: (1) Paw Pain Inflammation Model
A small amount of CFA (complete Freund's adjuvant) or formalin was injected into only one paw (right) of the hind paws of Balb/c or ICR mice to establish inflammation models. 1 day after injection of the inflammation inducer, the mice were used in imaging or other in vivo experiments.
It is a known fact that inflamed sites show high concentrations of hydrogen sulfide.
Nuclear medicine imaging was measured by using an Inveon PET/CT system of Siemens Healthcare, and optical imaging was measured by using IVIS spectrum CT equipment. Cherenkov radiation emitted from ^64Cu was measured by using a highly sensitive CCD (charge-coupled device) camera.
Imaging was measured for 1 minute to 5 minutes, and a radiation dose was about 50 μCi to 2000 μCi, and photographs were variously taken as needed, such as immediately after first injection, at 1 hour, 4 hours, and 24 hours later.

[11] = Test of hydrogen sulfide selectivity (overall statements); format: physicochemical
Experimental: as §1, §2, §3, §4, §5

[12] = Hydrogen sulfide selectivity test: decomplexation by NaClO4; format: physicochemical; conditions: NaClO4 (100 μM); 37° C. for 15 minutes
Experimental: as §1, §2, §3, §4, §5

[13] = Test of hydrogen sulfide detection sensitivity (% decomplexation with NaHS, radio-TLC); format: physicochemical; conditions: 37° C. for 15 minutes
Experimental: To measure hydrogen sulfide detection sensitivity of the ^64Cu-labeled complex compound according to the present disclosure, the following experiment was performed.
About 45 μCi-55 μCi of ^64Cu-labeled complex compound (250 μL of triple distilled water) was mixed with various concentrations of NaHS solution (250 µL of triple distilled water), and stirred at 37° C. for 15 minutes (a total volume used in the reaction was equally 500 μL). After completion of the reaction, the resulting products were strongly stirred to mix appropriately.
Formation of copper sulfide (^64CuS) was confirmed by quantification of % decomplexation by using a radio-TLC scanner, and results are shown in the following Tables 2 and 3.

[14] = Hydrogen sulfide selectivity test: decomplexation by DTT; format: physicochemical; conditions: DL-dithiothretitol (DTT, 100 μM); 37° C. for 15 minutes
Experimental: as §1, §2, §3, §4, §5

[15] = Hydrogen sulfide selectivity test: decomplexation by Na2S2O5; format: physicochemical; conditions: 100 μM or (1 mM), 37° C. for 15 minutes
Experimental: as §1, §2, §3, §4, §5

[16] = Hydrogen sulfide selectivity test: decomplexation by H2O2; format: physicochemical; conditions: H2O2 (100 µM); 37° C. for 15 minutes
Experimental: as §1, §2, §3, §4, §5

[17] = Test of hydrogen sulfide detection over time (^64CuS formation, radio-TLC); format: physicochemical; parameters: unit not given here; conditions: 100 μM NaHS, 37° C.
Experimental: To examine reactivity of the ^64Cu-labeled complex compound according to the present disclosure over time, the following experiment was performed.
A detailed experimental method is as follows.
About 45 μCi-50 μCi of ^64Cu-labeled complex compound (250 μL of triple distilled water) was mixed with 100 μM of NaHS solution ([…] of triple distilled water), and stirred at 37° C. for 15 minutes. Formation of copper sulfide (^64CuS) was quantified by using a radio-TLC scanner.

[18] = Hydrogen sulfide selectivity test: decomplexation by NaNO2; format: physicochemical; conditions: NaNO2 (100 µM); 37° C. for 15 minutes
Experimental: as §1, §2, §3, §4, §5

[19] = Hydrogen sulfide selectivity test: decomplexation by NaCl; format: physicochemical; conditions: 100 μM or NaCl (10 mm), 37° C. for 15 minutes
Experimental: as §1, §2, §3, §4, §5

[20] = Hydrogen sulfide selectivity test: decomplexation by ME; format: physicochemical; conditions: 2-mercaptoethanol; 100 μM or (2-ME, 10 mM); 37° C. for 15 minutes
Experimental: as §1, §2, §3, §4, §5

[21] = Hydrogen sulfide selectivity test: decomplexation by Cys; format: physicochemical; conditions: 100 μM or L-Cys (1 mM), 37° C. for 15 minutes
Experimental: as §1, §2, §3, §4, §5

[22] = test system: Myocardial infarction model; assay: Imaging study in myocardial infarction model (PET); format: in vivo, Sprague-Dawley rats; conditions: PET imaging after injection
Description: (2) Myocardial Infarction Model
A myocardial infarction model was established by using Sprague-Dawley rats (12-week-old or older, about 250 g). 2 days later after induction of myocardial infarction by occlusion of the coronary arteries in the heart, the rats were used in imaging tests. It is a known fact that myocardial infarction sites show high concentrations of hydrogen sulfide.
It is known that myocardial infarction sites show high concentrations of hydrogen sulfide. Thus, after induction of myocardial infarction by coronary artery occlusion in rats, 50 μCi-900 μCi of the ^64Cu-labeled complex compound was injected via the tails of the rats, and uptake in the myocardial infarction site was examined over time by PET imaging.
36 hours after establishment of the myocardial infarction model, 730 μCi of the radioisotope-labeled complex compound of the present disclosure was injected and nuclear medicine imaging was performed. 2 days later, […] of FDG was injected into the same rat, and then FDG-PET images were obtained. Results are shown in FIGS. 15 to 17 (in the nuclear medicine imaging, the upper image represents a transverse image, and the lower image represents a coronal image).

SMILES	Decomplexation [%] [1] [%]	Decomplexation [%] [2] [%]	Decomplexation [%] [3] [%]	Decomplexation [%] [4] [%]	Decomplexation [%] [5] [%]	Decomplexation [%] [6] [%]	Decomplexation [%] [7] [%]	Decomplexation [%] [9] [%]	Decomplexation [%] [10] [%]	Decomplexation [%] [12] [%]	% decomplexation ([13]; NaHS 0 μM) [%]	% decomplexation ([13]; NaHS 1 μM) [%]	% decomplexation ([13]; NaHS 10 μM) [%]	% decomplexation ([13]; NaHS 15 μM) [%]	% decomplexation ([13]; NaHS 20 μM) [%]	% decomplexation ([13]; NaHS 50 μM) [%]	% decomplexation ([13]; NaHS 100 μM) [%]	Decomplexation [%] [14] [%]	Decomplexation [%] [15] [%]	Decomplexation [%] [16] [%]	further results
C1COCCNCCOCCN1.[64Cu+2] [Example 3]	15	0.3	19 ± 5	15	3 ± 1	48	27 ± 3	0.6	0.1	0.4	0	0	3	6	79	100	100	45 ± 2	5	0.4	Decomplexation [%] [8]: 100%; selective uptake in inflamed sites (Paw inflammation model; optical imaging and nuclear medicine imaging): selective uptake; selective reactivity with hydrogen sulfide versus biothiol compounds or anions, in words [11]: did not selectively react with hydrogen sulfide; Formation of copper sulfide (^64CuS) over time ([17]; 10 sec): 62; Formation of copper sulfide (^64CuS) over time ([17]; 30 sec): 70; Formation of copper sulfide (^64CuS) over time ([17]; 60 sec): 75; Formation of copper sulfide (^64CuS) over time ([17]; 5 min): 100; Formation of copper sulfide (^64CuS) over time ([17]; 10 min): 100; Formation of copper sulfide (^64CuS) over time ([17]; 15 min): 100; Decomplexation [%] [18]: 0.5%; Decomplexation [%] [19]: 0.3%; Decomplexation [%] [20]: 16%; Decomplexation [%] [21]: 0.4%
C1C[N]2CC[N]3CC[N]4CC[N](C1)[64Cu]234 [Example 16, ^64Cu-labeled cyclam]	0.8 ± 0.0	0.5 ± 0.1	0.8 ± 0.1	0.7 ± 0.2	0.6 ± 0.0	0.8 ± 0.2	0.7 ± 0.0	0.7 ± 0.1	0.7 ± 0.0	0.6 ± 0.1	0	0	0	0	0	1.3	10.5	0.8 ± 0.0	0.5 ± 0.0	0.7 ± 0.2	difference between inflamed and normal paws (Paw inflammation model; mouse, in vivo): no obvious difference in the inflamed and normal paws; uptake compared to injection of the same quantity of ^64Cu-labeled cyclen of Example 1 (Paw inflammation model; mouse, in vivo): low uptake; Formation of copper sulfide (^64CuS) over time ([17]; 10 sec): 0; Formation of copper sulfide (^64CuS) over time ([17]; 30 sec): 0; Formation of copper sulfide (^64CuS) over time ([17]; 60 sec): 0; Formation of copper sulfide (^64CuS) over time ([17]; 5 min): 3; Formation of copper sulfide (^64CuS) over time ([17]; 10 min): 5; Formation of copper sulfide (^64CuS) over time ([17]; 15 min): 10; Decomplexation [%] [18]: 0.5 ± 0.1%; Decomplexation [%] [19]: 0.7 ± 0.0%; Decomplexation [%] [20]: 0.5 ± 0.6%; Decomplexation [%] [21]: 0.7 ± 0.2%; uptake / visualisation of the myocardial infarction site [22]: no specific uptake was observed in the heart
